Laboratory results from ChEMBL document CHEMBL1134418, “Synthesis of tetrocarcin derivatives with specific inhibitory activity towards Bcl-2 functions” (2001).
≈ marks a conversion by molar mass, not a printed value.

Columns and labels:
[1] = biological target: Apoptosis regulator Bcl-2 (Homo sapiens) (UniProt P10415); experiment: Effect on DEVD cleavage by DEVDase assay without anti-Fas antibody using Bcl-2 overexpressing HeLa cells; 3 fold activation concentration (AC3); format: functional, cell-based
Apoptosis regulator Bcl-2 (Homo sapiens), sequence (P10415 whole entry): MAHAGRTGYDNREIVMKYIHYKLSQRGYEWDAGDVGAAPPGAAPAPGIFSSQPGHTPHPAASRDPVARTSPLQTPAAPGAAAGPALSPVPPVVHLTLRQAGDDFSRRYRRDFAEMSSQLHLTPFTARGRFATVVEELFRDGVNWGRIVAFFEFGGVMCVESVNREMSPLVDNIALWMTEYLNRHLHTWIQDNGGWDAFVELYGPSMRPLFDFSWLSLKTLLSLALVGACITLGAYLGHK

[2] = biological target: Apoptosis regulator Bcl-2 (Homo sapiens) (UniProt P10415); experiment: Effect on DEVD cleavage by DEVDase assay with anti-Fas antibody treatment using Bcl-2 overexpressing HeLa cells; 3 fold activation concentration (AC3); format: functional, cell-based
HeLa [3] = experiment: Evaluated for HeLa cell viability without anti-Fas antibody treatment by XTT assay; 3 fold activation concentration (AC3); format: functional, Homo sapiens
Bacillus subtilis = experiment: Antibacterial activity was evaluated against Bacillus subtilis; format: functional
HeLa [4] = experiment: Evaluated for HeLa cell viability with anti-Fas antibody treatment by XTT assay; 3 fold activation concentration (AC3); format: functional, Homo sapiens

SMILES	AC3 [1]	AC3 [2]	AC3 (HeLa [3])	MIC (Bacillus subtilis)	AC3 (HeLa [4])
COC(=O)NC1[C@H](C)O[C@@H](O[C@H]2C/C=C(\C)[C@@H]3C=C[C@@H]4[C@@H](O)[C@@H](C)C[C@H](C)[C@H]4[C@]3(C)/C(O)=C3\C(=O)O[C@]4(CC(C=O)=C[C@H](O)[C@H]4/C=C\2C)C3=O)CC1(C)[N+](=O)[O-] (stereo not given in full)	> 10 µM	> 10 µM	>10 µM	> 50 µg/mL	>10 µM
COC(=O)NC1[C@H](C)O[C@@H](O[C@H]2C/C=C(\C)[C@@H]3C=C[C@@H]4[C@@H](O)[C@@H](C)C[C@H](C)[C@H]4[C@]3(C)/C(O)=C3\C(=O)O[C@]4(CC(C=O)=C[C@H](O[Si](C)(C)C(C)(C)C)[C@H]4/C=C\2C)C3=O)CC1(C)[N+](=O)[O-] (stereo not given in full)	> 10 µM	> 10 µM	>10 µM	> 50 µg/mL	>10 µM
COC(=O)NC1[C@H](C)O[C@@H](O[C@H]2C/C=C(\C)[C@@H]3C=C[C@@H]4[C@@H](OC5C=C[C@H](O)[C@H](C)O5)[C@@H](C)C[C@H](C)[C@H]4[C@]3(C)/C(O)=C3\C(=O)O[C@]4(CC(C=O)=C[C@H](OC(C)=O)[C@H]4/C=C\2C)C3=O)CC1(C)[N+](=O)[O-] (stereo not given in full)	> 10 µM	3.6 µM	>10 µM	> 50 µg/mL	3.7 µM
COC(=O)NC1[C@H](C)O[C@@H](O[C@H]2C/C=C(\C)[C@@H]3C=C[C@@H]4[C@@H](O[Si](C)(C)C(C)(C)C)[C@@H](C)C[C@H](C)[C@H]4[C@]3(C)/C(O)=C3\C(=O)O[C@]4(CC(C=O)=C[C@H](O[Si](C)(C)C(C)(C)C)[C@H]4/C=C\2C)C3=O)CC1(C)[N+](=O)[O-] (stereo not given in full)	> 10 µM	> 10 µM	>10 µM	> 50 µg/mL	>10 µM
COC(=O)NC1[C@H](C)O[C@@H](O[C@H]2C/C=C(\C)[C@@H]3C=C[C@@H]4[C@@H](O[C@H]5CCCCO5)[C@@H](C)C[C@H](C)[C@H]4[C@]3(C)/C(O)=C3\C(=O)O[C@]4(CC(C=O)=C[C@H](OC(C)=O)[C@H]4/C=C\2C)C3=O)CC1(C)[N+](=O)[O-] (stereo not given in full)	4.9 µM	3.9 µM	4.8 µM	6.3 µg/mL (≈ 6.93 µM)	3.9 µM
CC[Si](CC)(CC)OO[C@H]1C=CC(O[C@@H]2[C@H]3C=C[C@H]4/C(C)=C/C[C@H](O[C@H]5CC(C)([N+](=O)[O-])C(NC(=O)OC)[C@H](C)O5)/C(C)=C\[C@@H]5[C@@H](OC(C)=O)C=C(C=O)C[C@]56OC(O)=C(C(=O)[C@@]4(C)[C@@H]3[C@@H](C)C[C@@H]2C)C6=O)O[C@H]1C (stereo not given in full)	> 10 µM	4.9 µM	>10 µM	> 50 µg/mL	4.3 µM
COC(=O)NC1[C@H](C)O[C@@H](O[C@H]2C/C=C(\C)[C@@H]3C=C[C@@H]4[C@@H](OC5C[C@H](O[C@@H]6CCC(OC7C[C@H](O)[C@@H](OC8CC[C@@H](O)C(C)O8)C(C)O7)[C@H](C)O6)[C@@H](OC(C)=O)C(C)O5)[C@@H](C)C[C@H](C)[C@H]4[C@]3(C)/C(O)=C3\C(=O)O[C@]4(CC(C=O)=CC(O)[C@H]4/C=C\2C)C3=O)CC1(C)[N+](=O)[O-] (stereo not given in full)	7.7 µM	2.2 µM	4 µM	< 0.049 µg/mL	1.4 µM
COC(=O)NC1[C@H](C)O[C@@H](O[C@H]2C/C=C(\C)[C@@H]3C=C[C@@H]4[C@@H](OC5C[C@H](O[C@@H]6CCC(OC7C[C@H](O)[C@@H](OC8CC[C@@H](O)C(C)O8)C(C)O7)[C@H](C)O6)[C@@H](OC(C)=O)C(C)O5)[C@@H](C)C[C@H](C)[C@H]4[C@]3(C)C(=O)C3=C(OC)[C@@]4(CC(C=O)=CC(O)[C@H]4/C=C\2C)OC3=O)CC1(C)[N+](=O)[O-] (stereo not given in full)	2.5 µM	1 µM	1.5 µM	5.2 µg/mL (≈ 3.92 µM)	0.8 µM
COCCOCCOCC(=O)O[C@@H]1[C@H]2C=C[C@H]3/C(C)=C/C[C@H](O[C@H]4CC(C)([N+](=O)[O-])C(NC(=O)OC)[C@H](C)O4)/C(C)=C\[C@@H]4[C@@H](O)C=C(C=O)C[C@]45OC(O)=C(C(=O)[C@@]3(C)[C@@H]2[C@@H](C)C[C@@H]1C)C5=O (stereo not given in full)	> 10 µM	> 10 µM	>10 µM	> 50 µg/mL	>10 µM
COC(=O)NC1[C@H](C)O[C@@H](O[C@H]2C/C=C(\C)[C@@H]3C=C[C@@H]4[C@@H](O[Si](C)(C)C(C)(C)C)[C@@H](C)C[C@H](C)[C@H]4[C@]3(C)/C(O)=C3\C(=O)O[C@]4(CC(C=O)=C[C@H](O)[C@H]4/C=C\2C)C3=O)CC1(C)[N+](=O)[O-] (stereo not given in full)	1.8 µM	1.3 µM	2 µM	> 50 µg/mL	2 µM
COC(=O)NC1[C@H](C)O[C@@H](O[C@H]2C/C=C(\C)[C@@H]3C=C[C@@H]4[C@@H](O[C@@H]5CC(OC(C)=O)C(OC(C)=O)[C@H](C)O5)[C@@H](C)C[C@H](C)[C@H]4[C@]3(C)/C(O)=C3\C(=O)O[C@]4(CC(C=O)=C[C@H](OC(C)=O)[C@H]4/C=C\2C)C3=O)CC1(C)[N+](=O)[O-] (stereo not given in full)	> 10 µM	2.1 µM	>10 µM	16.7 µg/mL (≈ 16.1 µM)	1.1 µM
COC(=O)NC1[C@H](C)O[C@@H](O[C@H]2C/C=C(\C)[C@@H]3C=C[C@@H]4[C@@H](OCc5ccc(OC)cc5)[C@@H](C)C[C@H](C)[C@H]4[C@]3(C)/C(O)=C3\C(=O)O[C@]4(CC(C=O)=C[C@H](OC(C)=O)[C@H]4/C=C\2C)C3=O)CC1(C)[N+](=O)[O-] (stereo not given in full)	4.8 µM	3.8 µM	5.8 µM	> 50 µg/mL	7.6 µM
COC(=O)NC1[C@H](C)O[C@@H](O[C@H]2C/C=C(\C)[C@@H]3C=C[C@@H]4[C@@H](O)[C@@H](C)C[C@H](C)[C@H]4[C@]3(C)/C(O)=C3\C(=O)O[C@]4(CC(C=O)=C[C@H](OC(C)=O)[C@H]4/C=C\2C)C3=O)CC1(C)[N+](=O)[O-] (stereo not given in full)	> 10 µM	8.4 µM	>10 µM	> 50 µg/mL	>10 µM
COC(=O)NC1[C@H](C)O[C@@H](O[C@H]2C/C=C(\C)[C@@H]3C=C[C@@H]4[C@@H](OC5(C)O[C@@H]6OC(COC(C)=O)[C@@H](OC(C)=O)C(OC(C)=O)[C@@H]6O5)[C@@H](C)C[C@H](C)[C@H]4[C@]3(C)/C(O)=C3\C(=O)O[C@]4(CC(C=O)=C[C@H](OC(C)=O)[C@H]4/C=C\2C)C3=O)CC1(C)[N+](=O)[O-] (stereo not given in full)	> 10 µM	5.7 µM	>10 µM	> 50 µg/mL	1.8 µM
COCCOCCOCC(=O)O[C@@H]1[C@H]2C=C[C@H]3/C(C)=C/C[C@H](O[C@H]4CC(C)([N+](=O)[O-])C(NC(=O)OC)[C@H](C)O4)/C(C)=C\[C@@H]4[C@@H](O[Si](C)(C)C(C)(C)C)C=C(C=O)C[C@]45OC(O)=C(C(=O)[C@@]3(C)[C@@H]2[C@@H](C)C[C@@H]1C)C5=O (stereo not given in full)	> 10 µM	9.5 µM	6.4 µM	> 50 µg/mL	3.9 µM
